The text below walks through data of BindingDB's records for doi:10.1021/jm00079a012 (Smithkline Beecham Pharmaceuticals, 1992).

For assay [1], the target named is Delta(24)-sterol reductase DHCR24 (Rattus norvegicus). In words: Compound was tested for the inhibition of delta24-sterol reductase.
Assay [2] shares this target. The assay is described as above. The source holds these as a separate data set.

What is called Ki is the dissociation constant of the complex between target and ligand, obtained from inhibition or displacement. Read a low Ki as higher affinity. On to `C[C@H](CCC(=N)N)C1CC[C@@]2(C)C3=C(CC[C@]12C)[C@@]1(C)CC[C@H](O)C(C)(C)C1CC3` (stereo partly drawn), for which the affinity in assay [1], expressed as Ki, was 7 nM.
As for `C[C@H](CCC(N)=[N+](C)C)C1CC[C@@]2(C)C3=C(CC[C@]12C)[C@@]1(C)CC[C@H](O)C(C)(C)C1CC3` (stereo partly drawn), the Ki in assay [2] came out at 12 nM.
Regarding `CC(C)[S+](C)CC[C@@H](C)C1CCC2C3CC=C4C[C@@H](O)CC[C@]4(C)C3CC[C@@]21C` (stereo partly drawn), the inhibitory constant (Ki) in assay [1] was 4 nM.
